Measurements: US20150352076A1, “MOLECULARLY TARGETED COMBINATION DRUG FOR TUMOR TREATMENT AND PREVENTION” (ONCOLYS BIOPHARMA INC., priority 2013, published 2015)
Residues, ends and D or L forms follow the SMILES beside them. *: point of attachment. Cbz = O=C(OCc1ccccc1)*; CH2F = FC*

What was measured:
Assay type in all cases: cell-based, human
HEC-1-A cells [1] = assay: Cell viability testing (Cell Counting Kit-8), cell growth inhibition
Protocol: (§1) HEC-1-A cells derived from the human type 2 endometrial carcinoma cell line were cultured under conditions of 37° C. and 5% CO2 in RPMI medium to which 10% FBS had been added. Ishikawa human endometrial carcinoma cells were cultured under conditions of 37° C. and 5% CO2 in DMEM medium to which 10% FBS had been added. Human renal cell carcinoma cell line 786-O cells were cultured under conditions of 37° C. and 5% CO2 in RPMI 1640 medium to which 10% FBS, 2 mM glutamine, 100 U/mL penicillin, and 100 μg/mL streptomycin had been added. Human renal cell carcinoma cell line ACHN cells were cultured under conditions of 37° C. and 5% CO2 in DMEM medium to which 10% FBS, 4 mM glutamine, 100 U/mL penicillin, and 100 μg/mL streptomycin had been added. Human lymphoma cell line SU-DHL-6 cells were cultured under conditions of 37° C. and 5% CO2 in RPMI 1640 medium to which 10% FBS, 2 mM glutamine, 100 U/mL penicillin, and 100 μg/mL streptomycin had been added. Human breast cancer cell line MDA-MB-231 cells were cultured under conditions of 37° C. and 5% CO2 in RPMI 1640 medium to which 10% FBS, 2 mM glutamine, 100 U/mL penicillin, and 100 μg/mL streptomycin had been added.
(§2) Cell viability was determined by carrying out measurements at a wavelength of 450 nm with a Viento multi-well spectrophotometer (DS Pharma Biomedical, Japan) using a Cell Counting Kit-8 (Dojindo Laboratories, Japan).

phosphorylated Akt = assay: Western blot analysis of phosphorylated Akt in HEC-1-A cells
Protocol: (§3) Cells were lysed with lysis solution (50 mM Tris-HCl, 1% SDS, 2 μg/mL leupeptin, 2 μg/mL aprotinin, 0.1% 2-mercaptoethanol, and 1 mM phenylmethyl sulfonyl fluoride). Protein extract was loaded onto a polyacrylamide gel, subjected to electrophoresis, and transferred to a nitrocellulose membrane. Blots were blocked in blocking solution (5% skim milk/TBST) for 1 hour at room temperature, and incubated with appropriate primary antibody for 1 hour at room temperature. Signal was detected with an ECL™ Western Blot Analysis System (GE Healthcare, Piscataway, N.J., USA) or a Chemi-Lumi One chemiluminescent detection kit (Nacalai Tesque, Inc., Japan). […]

HEC-1-A cells [2] = assay: Colony formation assay
Protocol: Cells were seeded at a density of 200 cells per well in 6-well plates. After culturing these for 24 hours, treatment was carried out for 48 hours at respective concentrations with or without addition of OBP-801 and/or with addition of LY294002. These were then cultured in growth medium for 10 days, and the number of viable colonies was counted.

HEC-1-A cells [3] = assay: Analysis of cell cycle and apoptosis (sub-G1 fraction, flow cytometry) with combination index; settings: for effect on tumor cell cycle progression: used alone, OBP-801 4 nM, LY294002 12.5 μM, 24 hours to 72 hours
Protocol: (§4) Cells were treated for 24 hours, 48 hours, or 72 hours at respective concentrations with or without addition of OBP-801 and/or with addition of LY294002, BKM120, GDC-0941, BEZ235, BYL719, or CH5132799, following which cells were harvested. The cells were permeabilized with 0.1% Triton-X100, following which the nuclei were stained with propidium iodide (PI). DNA content was measured using a FACSCalibur™ flow cytometer (Becton-Dickinson, Franklin Lakes, N.J., USA), and was analyzed with ModFit LT™ (Verity Software House, Topsham, Me., USA) and the Cell Quest™ software package (Becton-Dickinson).
Combination index (CI) was calculated using CalcuSyn software (Biosoft, UK) based on the method of Chou and Talalay. When CI<1, it is determined that the effect is synergistic; i.e., greater than the expected additive effect. When CI=1, it is determined that the effect is additive; when CI>1, it is determined that the effect is antagonistic.

786-O cells [4] = assay: Cell viability testing, cell growth inhibition; settings: used alone
Protocol: as §1, §2

ACHN cells = assay: Cell viability testing, cell growth inhibition; settings: used alone
Protocol: as §1, §2

Ishikawa cells = assay: Cell viability testing, cell growth inhibition; settings: used alone
Protocol: as §1, §2

786-O cells [5] = assay: Analysis of apoptosis (sub-G1 fraction, flow cytometry); settings: for induction of apoptosis (sub-G1), treatment alone: 48 hours and 72 hours; for effect of combined use with OBP-801 (summary statement): PI3K inhibitor used in combination with OBP-801, all five tested in 786-O cells
Protocol: as §4

[6] = system: caspase-3, caspase-8 and caspase-9; assay: Western blot analysis of caspase-3, caspase-8 and caspase-9 cleavage in 786-O cells
Protocol: as §3

caspases, Bim = assay: Western blot analysis of caspase cleavage and Bim in HEC-1-A cells; settings: OBP-801 and LY294002 plus NAC
Protocol: as §3

786-O cells [7] = assay: Measurement of intracellular reactive oxygen species (CM-H2DCFDA); settings: OBP-801 and LY294002 plus NAC
Protocol: (§5) Cells were pretreated for 48 h with or without addition of OBP-801 and/or with addition of LY294002, and were thereafter treated with 10 μM 5-(and-6)-chloromethyl-2′,7′-dichlorodihydrofluorescein diacetate, acetyl ester (CM-H2DCFDA) (Invitrogen, Carlsbad, Calif., USA). After 30 minutes of incubation with 10 μM CM-H2DCFDA, cells were collected by trypsinization, were washed with PBS, and were analyzed by flow cytometry using FACSCalibur™ and CellQuest™ software (Becton-Dickinson).

HEC-1-A cells [8] = assay: as above; settings: OBP-801 and LY294002 plus NAC
Protocol: as §5

survivin and XIAP = assay: Western blot analysis of survivin and XIAP in 786-O cells; settings: OBP-801 and LY294002 plus NAC
Protocol: as §3

acetylated histone H4 = assay: Western blot analysis of acetylated histone H4 in HEC-1-A cells
Protocol: as §3

`O=c1cc(N2CCOCC2)oc2c(-c3ccccc3)cccc12` [LY294002, 2-(4-morpholinyl)-8-phenyl-4H-1-benzopyran-4-one] was tested, and the “concentrations causing inhibition of cell growth” value (HEC-1-A cells [1]; LY294002 alone) was at least 6.3 µM, the “concentrations causing decrease in phosphorylated Akt” value (phosphorylated Akt) was at least 6.3 µM and the “number of colonies formed” value (HEC-1-A cells [2]; LY294002 alone, even at a concentration as high as 12.5 μM) was “no reduction in the number of colonies formed was observed”. For the same compound, the “effect on tumor cell cycle progression” value (HEC-1-A cells [3]) was “G1-phase arrest”, the “growth of 786-O cells” value (786-O cells [4]) was “suppressed growth of 786-O cells or ACHN cells in concentration-dependent fashion” and the “growth of ACHN cells” value (ACHN cells) was “suppressed growth of 786-O cells or ACHN cells in concentration-dependent fashion”. For the same compound, the “growth of Ishikawa cells” value (Ishikawa cells) was “suppressed growth of Ishikawa cells in concentration-dependent fashion”, the “induction of apoptosis (sub-G1), treatment alone” value (786-O cells [5]; 786-O cells) was “only slight induction of apoptosis” and the “cleavage of caspase-3, caspase-8 and caspase-9” value [6] was “did not induce cleavage of the foregoing caspases”.
`Nc1cc(C(F)(F)F)c(-c2cc(N3CCOCC3)nc(N3CCOCC3)n2)cn1` [BKM120] was tested, and the “effect of combined use with OBP-801 (summary statement)” value (shortened to “effect of combined use”) (786-O cells [5]) was “synergistic tumor therapeutic/prophylactic effect”.
In the case of `CC(=O)N[C@@H](CS)C(=O)O` [NAC, N-acetyl-L-cysteine], the “effect on induction of apoptosis resulting from combined treatment” value (HEC-1-A cells [3]; HEC-1-A cells, OBP-801 and LY294002 plus NAC) was “almost completely suppressed”, the “effect on induction of apoptosis due to combined treatment” value (786-O cells [5]; 786-O cells, OBP-801 and LY294002 plus NAC) was “blocked the induction of apoptosis” and the “effect on caspase activation and Bim induction due to combined treatment” value (caspases, Bim) was “inhibited the caspase activation and Bim induction”. The “effect on induction of intracellular reactive oxygen species due to combined treatment” value (786-O cells [7]) was “blocked the induction of intracellular reactive oxygen species”, the “effect on increase of intracellular reactive oxygen species caused by combined treatment” value (HEC-1-A cells [8]) was “blocked” and the “effect on downregulation of survivin and XIAP by combined treatment” value (survivin and XIAP) was “restored”.
With `CS(=O)(=O)N1CCN(Cc2cc3nc(-c4cccc5[nH]ncc45)nc(N4CCOCC4)c3s2)CC1` [GDC-0941] the “effect of combined use” value (786-O cells [5]) was “synergistic tumor therapeutic/prophylactic effect”.
`Cc1nc(NC(=O)N2CCC[C@H]2C(N)=O)sc1-c1ccnc(C(C)(C)C(F)(F)F)c1` [BYL719] was tested, and the “effect of combined use” value (786-O cells [5]) was “synergistic tumor therapeutic/prophylactic effect”.
With `CS(=O)(=O)N1CCc2c(-c3cnc(N)nc3)nc(N3CCOCC3)nc21` [CH5132799] the “effect of combined use” value (786-O cells [5]) was “synergistic tumor therapeutic/prophylactic effect”.
For `COC(=O)C[C@H](NC(=O)[C@H](C)NC(=O)[C@@H](NC(=O)OCc1ccccc1)C(C)C)C(=O)CF` [zVAD-fmk] (Cbz-Val-Ala-Asp(OMe)-CH2F), the “effect on apoptosis induced by combined use of OBP-801 and PI3K inhibitor” value (HEC-1-A cells [3]; HEC-1-A cells, pan-caspase inhibitor added) was “almost completely suppressed” and the “effect on apoptosis induced by combined treatment with OBP-801 and LY294002” value (786-O cells [5]; 786-O cells, pan-caspase inhibitor added) was “effectively suppressed the apoptosis”.
For spiruchostatin A [OBP-801], the “concentrations causing inhibition of cell growth” value (HEC-1-A cells [1]; OBP-801 alone) was at least 0.0031 µM, the “concentrations causing increase of acetylated histone H4” value (acetylated histone H4) was at least 1.6 nM and the “number of colonies formed” value (HEC-1-A cells [2]; OBP-801 alone at 4 nM, 48 hours treatment, 10 days culture) was 60%. The “effect on tumor cell cycle progression” value (HEC-1-A cells [3]) was “G2/M-phase arrest”, the “growth of 786-O cells” value (786-O cells [4]) was “suppressed growth of 786-O cells or ACHN cells in concentration-dependent fashion” and the “growth of ACHN cells” value (ACHN cells) was “suppressed growth of 786-O cells or ACHN cells in concentration-dependent fashion”. For the same compound, the “growth of Ishikawa cells” value (Ishikawa cells) was “suppressed growth of Ishikawa cells in concentration-dependent fashion”, the “induction of apoptosis (sub-G1), treatment alone” value (786-O cells [5]; 786-O cells) was “only slight induction of apoptosis” and the “cleavage of caspase-3, caspase-8 and caspase-9” value [6] was “did not induce cleavage of the foregoing caspases”.
With `Cn1c(=O)n(-c2ccc(C(C)(C)C#N)cc2)c2c3cc(-c4cnc5ccccc5c4)ccc3ncc21` [BEZ235] the “effect of combined use” value (786-O cells [5]) was “synergistic tumor therapeutic/prophylactic effect”.
